Experimental findings from patent publication EP4755885A1 (Shanghai Hansoh Biomedical Co., Ltd., priority 2023, dated 2025) are described below.

What is called AUC(0-inf) is the area under the concentration-time curve extrapolated to infinity. The term AUC(0-t) denotes exposure summed from dosing to a finite time, without extrapolation to infinity. A low value points to less exposure. The Cmax is the maximum level reached in the sampled fluid or tissue. Usually Tmax stands for the time at which the peak concentration occurs. Broadly, the half-life is the time in which the quantity being followed falls by half.

Structures are written as SMILES.

Data set [1] in a line: Pharmacokinetic evaluation in rats, oral administration. The following applies: rat, in vivo, p.o. 5 mg/kg, plasma. Set-up: species or system SD rats. The method, then:
SD rats were used as test animals to study the pharmacokinetic behavior of the following example compounds, administered orally at a dose of 5 mg/kg, in the plasma of the rats. SD rats, 3 per group, male. […] An example compound was weighed and added to a 4 mL glass bottle, and the solution was added. […] Sonication was performed for 10 min to obtain a colorless clear solution having a concentration of 0.5 mg/mL. […] The blood samples were placed in EDTA-K2 tubes and centrifuged at 6000 rpm at 4°C for 6 min to separate plasma, which was stored at -80°C. […] • Liquid phase conditions: Shimadzu LC-20AD pump • Mass spectrometry conditions: AB Sciex API 4000 mass spectrometer • Chromatographic column: phenomenex Gemiu 5 um C18 50 × 4.6 mm • Mobile phase: Solution A was 0.1% formic acid aqueous solution, and Solution B was methanol • Flow rate: 1.0 mL/min • Elution time: 0-4.0 min, the eluent was as follows: […] The results of the rat pharmacokinetic experiment are shown in the table below: Table 5: Pharmacokinetic parameters of oral administration of the compound of the present invention in rats

The nature of data set [2]: Pharmacokinetic evaluation in Macaca fascicularis monkeys, intravenous administration. Type of data set: in vivo. The following applies: cynomolgus monkey, I.V. 0.2 mg/kg, plasma. The method, then: Macaca fascicularis monkeys were used as test animals to study the pharmacokinetic behavior of the compound of the present invention, administered intravenously at a dose of 0.2 mg/kg, in Macaca fascicularis monkeys (plasma).
Macaca fascicularis monkeys, 3 per group, male, Guangxi Xiongsen, Animal Production License No.: SCXK (Gui) 2021-0004).
Preparation of drug for intravenous administration: 5%DMSO+10%Solutol HS15+85%PBS
The compound of the present invention was weighed. 5% DMSO was first added according to the proportion in the total volume, followed by vortexing and sonication for 2 min to achieve complete dissolution. Then 10% Solutol HS15 was added, followed by vortexing and sonication for 2 min to achieve complete dissolution. Finally, 85% PBS was added, followed by vortexing and sonication for 5 min and filtering through a 0.22 um filter membrane to obtain a colorless, transparent, clear solution having a concentration of 0.1 mg/mL.
Three Macaca fascicularis monkeys, male, respectively administered I.V. after fasting overnight, at a dose of 0.2 mg/kg and in an administration volume of 2 mL/kg.
0.5 mL of blood was collected from the forelimb vein of the Macaca fascicularis monkeys before administration and at 0.083, 0.25, 0.5, 1, 2, 4, 8, and 24 h after administration. The blood samples were placed in EDTA-K2 tubes and centrifuged at 6000 rpm at 4°C for 6 min to separate plasma, which was stored at -80°C.
40 µL of a plasma sample was added with 160 µL of acetonitrile for precipitation, and after mixing, the mixture was centrifuged at 3500 × g for 5 to 20 min.
100 µL of the supernatant solution after treatment was taken for LC/MS/MS analysis of the concentration of the test compound.
Liquid phase condition: Shimadzu LC-20AD pump Mass spectrometry condition: AB Sciex API 4000 mass spectrometer Chromatographic column: phenomenex Gemiu 5 um C18 50 × 4.6 mm Mobile phase: Solution A was 0.1% formic acid aqueous solution, and Solution B was acetonitrile Flow rate: 0.8 mL/min Elution time: 0-4.0 min, the eluent was as follows:
Main pharmacokinetic parameters were calculated using WinNonlin 8.2. The results of the Macaca fascicularis monkey pharmacokinetic experiment are shown in Table 8 below: Table 8: Pharmacokinetic parameters of injection administration of the compound of the present invention in Macaca fascicularis monkeys

For `[2H]C([2H])([2H])n1nc2c3c(c(-n4ccn(-c5c6c(nn5-c5cc(C)c(F)c(C)c5)CCN(C(=O)c5cc7cc([C@H]8CCOC(C)(C)C8)ccc7n5[C@@]5(c7noc(=O)[nH]7)C[C@@H]5C)[C@H]6C)c4=O)ccc31)OCCC2` [Example 282, 3-((1S,2S)-1-(5-((S)-2,2-dimethyltetrahydro-2H-pyran-4-yl)-2-((S)-2-(4-fluoro-3,5-dimethylphenyl)-4-methyl-3-(3-(2-(methyl-d3)-2,7,8,9-tetrahydrooxaheptano[4,3,2-cd]indazol-5-yl)-2-carbonyl-2,3-dihydro-1H-imidazol-1-yl)-4,5,6,7-tetrahydro-2H-pyrazolo[4,3-c]pyridine-5-carbonyl)-1H-indol-1-yl)-2-methylcyclopropyl)-1,2,4-oxadiazol-5(4H)-one], in data set [1], the AUC(0-inf) is 13900 ng·h/mL, the AUC(0-t) at 24 h was found to be 12200 ng·h/mL, the highest level (Cmax) was 971 ng/mL and the time to peak (Tmax) is 6 h. The compound also had a half-life in data set [1] of 7.3 h. Moreover, the MRT inf in data set [1] (read-out: MRT 0-∞) is 12 h. Besides, in data set [2], the AUC(0-inf) came out at 1930 ng·h/mL, the AUC(0-t) came out at 1680 ng·h/mL, the C0 came out at 1080 ng/mL and the half-life was 9.8 h. Moreover, the MRT inf in data set [2] (read-out: MRT 0-∞) was determined as 10.3 h.
